≈ marks a conversion by molar mass, not a printed value.
Conditions: buffer; pH 7.4; 200.0 µM

| Compound | solubility kinetic |
| --- | --- |
| CCOc1ccc(Cc2c(C)[nH]c3ccc(C(=O)O)cc3c2=S)cc1 | 36.2 µg/mL (≈ 102 µM) |
| COc1ccccc1N=C1SCC(=O)N1Cc1ccco1 | 35.8 µg/mL (≈ 118 µM) |
| Cc1ccc(C)n1-c1ccc(-c2ccnc(N)n2)cc1 | 22.5 µg/mL (≈ 85.1 µM) |
| CC(C)(C)OC(=O)N1CCC(CNC(=O)c2cccs2)CC1 | 42.4 µg/mL (≈ 131 µM) |
| CC(=O)Nc1nc2ccc(S(=O)(=O)N3CCCC3)cc2s1 | 3.1 µg/mL (≈ 9.53 µM) |
| COc1ccccc1NC(=O)C/C(N)=N/OCC(=O)Nc1cccc(Cl)c1 | > 58.6 µg/mL |
| CN1CCN(C(=O)CNC(=O)c2cccs2)CC1 | > 40.1 µg/mL |
| COc1ccc(CN2C(=O)CSC2c2ccncc2)cc1 (stereo not given) | > 45.1 µg/mL |
| CCc1ccccc1NC(=S)N(CCN(C)C)Cc1cccs1 | 45.6 µg/mL (≈ 131 µM) |
| CC(Cc1cccs1)NCc1ccccc1 (stereo not given) | 22.3 µg/mL (≈ 96.4 µM) |
| S=c1nccc(-c2ccc3c(c2)CCO3)[nH]1 | 14.8 µg/mL (≈ 64.3 µM) |
| CCN1CCN(C(=O)c2ccc(C(F)(F)F)cc2)CC1 | 40.6 µg/mL (≈ 142 µM) |
| CSc1ncc(C(=O)Nc2ccccc2C)c(C)n1 | > 41 µg/mL |
| O=C(Nc1ccc(F)c(Cl)c1)c1cccnc1 | 24.5 µg/mL (≈ 97.7 µM) |
| FCCCOc1ccc(-c2nccc(-c3ccccn3)n2)cc1 | 2.8 µg/mL (≈ 9.05 µM) |
| O=C(CC1Sc2ccccc2NC1=O)NCc1ccc(Cl)cc1 (stereo not given) | < 0.4 µg/mL |
| Cc1ccc(N2C(=O)C3CCCN3C2=S)c(C)c1 (stereo not given) | > 39.1 µg/mL |
| CC(Oc1ccc(Br)cc1Cl)C(=O)Nc1ccncc1 (stereo not given) | 45.9 µg/mL (≈ 129 µM) |
| O=c1[nH]c(=O)n(CC2CCCO2)c(O)c1/C=C1\C=Nc2ccccc21 (stereo not given) | > 50.9 µg/mL |
| Cc1cccc(N2CC(C(=O)NC3CCCCCC3)CC2=O)c1C (stereo not given) | > 49.3 µg/mL |

| Compound | solubility kinetic |
| --- | --- |
| OC(CCNCCc1c[nH]c2ccccc12)C(F)(F)F (stereo not given) | 35.8 µg/mL (≈ 125 µM) |
| CN(CCc1ccccn1)C(=O)c1cccnc1Oc1ccccc1 | > 50 µg/mL |
| Cc1ccnc(Nc2nc(-c3ccc(F)cc3)cs2)c1 | < 0.2 µg/mL |
| O=C(/C=C/c1ccc(Br)cc1)NCCCn1ccnc1 | 44.2 µg/mL (≈ 132 µM) |
| Cc1ccc2c(CC(=O)NCC(C)(C)N3CCOCC3)coc2c1 | > 49.6 µg/mL |
| Cc1sc2ncnc(Nc3ccc(O)cc3)c2c1C | 1.7 µg/mL (≈ 6.27 µM) |
| CC(C)c1onc(C(=O)N2CCC(C(N)=O)CC2)c1[N+](=O)[O-] | > 46.5 µg/mL |
| O=C(O)c1cc(=O)c2ccccc2[nH]1 | > 28.4 µg/mL |
| O=c1c2ccccc2nc2n1CCCN2 | > 30.2 µg/mL |
| CC(=O)NS(=O)(=O)c1ccc(NC(=O)[C@@H]2CCCN2S(=O)(=O)c2ccc(Cl)cc2)cc1 | > 72.9 µg/mL |
| CC(C)c1cccc(OCCN2CCCC2)c1 | 22.9 µg/mL (≈ 98.1 µM) |
| Nc1ncnc2c1ncn2[C@@H]1O[C@H](CO)[C@@H](O)[C@@H]1O | > 40.1 µg/mL |
| O=C(NCc1ccco1)c1ccc(Cl)nc1 | > 35.5 µg/mL |
| CCCn1c(N)c(C(=O)CN2CCN(S(=O)(=O)c3cccc(Cl)c3)CC2)c(=O)[nH]c1=O | > 70.5 µg/mL |
| COC(=O)Nc1ccc(S(=O)(=O)Nc2ncccn2)cc1 | > 46.2 µg/mL |
| Clc1ccccc1N1CCN(Cc2ccco2)CC1 | 30.3 µg/mL (≈ 109 µM) |
| Cc1ccc(C)c(NCc2ccccc2CO)c1 | > 36.2 µg/mL |
| CCOC(=O)c1ccc(N=c2ssnc2Cl)cc1 | 4.8 µg/mL (≈ 16 µM) |
| Cc1sc2nc(COC(=O)c3c(F)cccc3F)[nH]c(=O)c2c1C | 4.2 µg/mL (≈ 12 µM) |
| COc1ccccc1CC(=O)Nc1ccc2c(c1)OC1(CCCC1)O2 | 35.7 µg/mL (≈ 105 µM) |

| Compound | solubility kinetic |
| --- | --- |
| Cc1c(NC(=O)CSCc2ccc(Cl)cc2Cl)cccc1C(=O)O | > 57.6 µg/mL |
| Cc1ccc(C)c(Cn2c(=O)n(C)c(=O)c3sccc32)c1 | 0.4 µg/mL (≈ 1.33 µM) |
| Cc1cc(C)n(-c2c(C)[nH]c3ccccc23)n1 | > 33.8 µg/mL |
| O=C(CSc1nc2ncccc2[nH]1)c1ccc2c(c1)OCO2 | 0.7 µg/mL (≈ 2.23 µM) |
| CN1CCCC(OC(=O)c2cccc(Cl)c2)C1.Cl (stereo not given) | > 43.5 µg/mL |
| O=C(Nc1ncccn1)c1ccc([N+](=O)[O-])cc1Cl | 27.8 µg/mL (≈ 99.8 µM) |
| Cc1ccc(C)c(NC(=O)c2nc(Cl)ccc2Cl)c1 | 3.2 µg/mL (≈ 10.8 µM) |
| CCNC(C(=O)c1c[nH]c2c(CC)cccc12)c1ccccc1 (stereo not given) | 43.2 µg/mL (≈ 141 µM) |
| CCOc1ccccc1NC(=O)CN1C(=O)COc2ccc(C)cc21 | 2.4 µg/mL (≈ 7.05 µM) |
| COc1ccc(/C=N/NC(=O)CNC(=O)c2ccncc2)cc1 | > 46.8 µg/mL |
| COc1ccccc1C(=O)Nc1ccncc1 | 33.4 µg/mL (≈ 146 µM) |
| CC(Oc1ccc(C#N)cc1)C(=O)N1CC=C(c2ccccc2)CC1 (stereo not given) | 38.4 µg/mL (≈ 116 µM) |
| O=C(Nc1nccs1)c1cn2ccccc2n1 | 36.2 µg/mL (≈ 148 µM) |
| COc1ccc(CCN=C(C)c2cc(C)c(C)cc2O)cc1OC | > 49.1 µg/mL |
| Cc1cccc2sc(N(CCN(C)C)C(=O)c3ccc4ccccc4c3)nc12.Cl | 0.4 µg/mL |
| CC(NC(=O)CN1CCOCC1)c1ccccc1 (stereo not given) | > 37.2 µg/mL |
| Cc1ccccc1C(=O)NC(=S)N(C)CCc1ccccn1 | > 47 µg/mL |
| CC(C)[C@H](NC(=O)c1ccccc1)C(=O)OCC(=O)NCC1CCCO1 (stereo not given in full) | > 54.4 µg/mL |
| COc1cccc(NC(=O)Nc2nc(SC(C)(C)C)ns2)c1 | 1.1 µg/mL (≈ 3.25 µM) |
| C=CCNc1nc(C)c(CNc2c(C)cc(C)cc2C)nc1C#N | 0.9 µg/mL (≈ 2.8 µM) |
